How the values were obtained:
rice (Oryza sativa) = experiment: Test B flooded paddy test, rice; settings: Oryza sativa, read-out: Plant response rating, Rice (0 to 100 scale, 0 is no effect, 100 is complete control)
kochia (Kochia scoparia) [1] = experiment: Test A postemergence, kochia; assay type: in vivo; settings: Bassia scoparia, post-emergence, 240 h, 0 to 100 scale (0 no effect, 100 complete control), read-out: Plant response rating, Kochia; for pest or weed control at 31 g/ha: 31 g ai/ha; for pest or weed control at 125 g/ha: 125 g ai/ha
Text: (§1) Seeds of plant species selected from barnyardgrass (Echinochloa crus-galli), kochia (Kochia scoparia), ragweed (common ragweed, Ambrosia elatior), ryegrass, Italian (Italian ryegrass, Lolium multiflorum), foxtail, giant (giant foxtail, Setaria faberii), foxtail, green (green foxtail, Setaria viridis) and pigweed (Amaranthus retroflexus) were planted into a blend of loam soil and sand and treated preemergence with a directed soil spray using test chemicals formulated in a non-phytotoxic solvent mixture which included a surfactant.
(§2) At the same time, plants selected from these weed species and also wheat (Triticum aestivum), corn (Zea mays), blackgrass (Alopecurus myosuroides), and galium (catchweed bedstraw, Galium aparine) were planted in pots containing the same blend of loam soil and sand and treated with postemergence applications of test chemicals formulated in the same manner. Plants ranged in height from 2 to 10 cm and were in the one- to two-leaf stage for the postemergence treatment. Treated plants and untreated controls were maintained in a greenhouse for approximately 10 days, after which time all treated plants were compared to untreated controls and visually evaluated for injury. […] A dash (-) response means no test result.

[2] = test system: barnyardgrass (Echinochloa crus-galli); experiment: Test B flooded paddy test, barnyardgrass; settings: Echinochloa crus-galli, read-out: Plant response rating, Barnyardgrass (0 to 100 scale, 0 is no effect, 100 is complete control)
[3] = test system: ryegrass, Italian (Italian ryegrass, Lolium multiflorum); experiment: Test A preemergence, ryegrass, Italian; assay type: in vivo; settings: Lolium multiflorum, pre-emergence, 240 h, 0 to 100 scale (0 no effect, 100 complete control), read-out: Plant response rating, Ryegrass, Italian; for pest or weed control at 31 g/ha: 31 g ai/ha; for pest or weed control at 125 g/ha: 125 g ai/ha
Text: as §1, §2

[4] = test system: barnyardgrass (Echinochloa crus-galli); experiment: Test A postemergence, barnyardgrass; assay type: in vivo; settings: Echinochloa crus-galli, post-emergence, 240 h, 0 to 100 scale (0 no effect, 100 complete control), read-out: Plant response rating, Barnyardgrass; for pest or weed control at 31 g/ha: 31 g ai/ha; for pest or weed control at 125 g/ha: 125 g ai/ha
Text: as §1, §2

kochia (Kochia scoparia) [5] = experiment: Test A preemergence, kochia; assay type: in vivo; settings: Bassia scoparia, pre-emergence, 240 h, 0 to 100 scale (0 no effect, 100 complete control), read-out: Plant response rating, Kochia; for pest or weed control at 31 g/ha: 31 g ai/ha; for pest or weed control at 125 g/ha: 125 g ai/ha
Text: as §1, §2

[6] = test system: pigweed (Amaranthus retroflexus); experiment: Test A preemergence, pigweed; assay type: in vivo; settings: Amaranthus retroflexus, pre-emergence, 240 h, 0 to 100 scale (0 no effect, 100 complete control), read-out: Plant response rating, Pigweed; for pest or weed control at 31 g/ha: 31 g ai/ha; for pest or weed control at 125 g/ha: 125 g ai/ha
Text: as §1, §2

[7] = test system: ryegrass, Italian (Italian ryegrass, Lolium multiflorum); experiment: Test A postemergence, ryegrass, Italian; assay type: in vivo; settings: Lolium multiflorum, post-emergence, 240 h, 0 to 100 scale (0 no effect, 100 complete control), read-out: Plant response rating, Ryegrass, Italian; for pest or weed control at 31 g/ha: 31 g ai/ha; for pest or weed control at 125 g/ha: 125 g ai/ha
Text: as §1, §2

[8] = test system: wheat (Triticum aestivum); experiment: Test A postemergence, wheat; assay type: in vivo; settings: Triticum aestivum, post-emergence, 240 h, 0 to 100 scale (0 no effect, 100 complete control), read-out: Plant response rating, Wheat; for plant injury at 31 g/ha: 31 g ai/ha; for plant injury at 125 g/ha: 125 g ai/ha
Text: as §1, §2

[9] = test system: barnyardgrass (Echinochloa crus-galli); experiment: Test A preemergence, barnyardgrass; assay type: in vivo; settings: Echinochloa crus-galli, pre-emergence, 240 h, 0 to 100 scale (0 no effect, 100 complete control), read-out: Plant response rating, Barnyardgrass; for pest or weed control at 31 g/ha: 31 g ai/ha; for pest or weed control at 125 g/ha: 125 g ai/ha
Text: as §1, §2

[10] = test system: ragweed (common ragweed, Ambrosia elatior); experiment: Test A postemergence, ragweed; assay type: in vivo; settings: Ambrosia artemisiifolia, post-emergence, 240 h, 0 to 100 scale (0 no effect, 100 complete control), read-out: Plant response rating, Ragweed; for pest or weed control at 31 g/ha: 31 g ai/ha; for pest or weed control at 125 g/ha: 125 g ai/ha
Text: as §1, §2

[11] = test system: blackgrass (Alopecurus myosuroides); experiment: Test A postemergence, blackgrass; assay type: in vivo; settings: Alopecurus myosuroides, post-emergence, 240 h, 0 to 100 scale (0 no effect, 100 complete control), read-out: Plant response rating, Blackgrass; for pest or weed control at 31 g/ha: 31 g ai/ha; for pest or weed control at 125 g/ha: 125 g ai/ha
Text: as §1, §2

[12] = test system: ducksalad (Heteranthera limosa); experiment: Test B flooded paddy test, ducksalad; settings: Heteranthera limosa, read-out: Plant response rating, Ducksalad (0 to 100 scale, 0 is no effect, 100 is complete control)
[13] = test system: pigweed (Amaranthus retroflexus); experiment: Test A postemergence, pigweed; assay type: in vivo; settings: Amaranthus retroflexus, post-emergence, 240 h, 0 to 100 scale (0 no effect, 100 complete control), read-out: Plant response rating, Pigweed; for pest or weed control at 31 g/ha: 31 g ai/ha; for pest or weed control at 125 g/ha: 125 g ai/ha
Text: as §1, §2

corn (Zea mays) = experiment: Test A postemergence, corn; assay type: in vivo; settings: Zea mays, post-emergence, 240 h, 0 to 100 scale (0 no effect, 100 complete control); for Corn plant response rating (crop injury, 0 = no effect, 100 = complete kill) at 31 g/ha: 31 g ai/ha; for Corn plant response rating (crop injury, 0 = no effect, 100 = complete kill) at 125 g/ha: 125 g ai/ha
Text: as §1, §2

[14] = test system: galium (catchweed bedstraw, Galium aparine); experiment: Test A postemergence, galium; assay type: in vivo; settings: Galium, post-emergence, 240 h, 0 to 100 scale (0 no effect, 100 complete control), read-out: Plant response rating, Galium; for pest or weed control at 31 g/ha: 31 g ai/ha; for pest or weed control at 125 g/ha: 125 g ai/ha
Text: as §1, §2

[15] = test system: ragweed (common ragweed, Ambrosia elatior); experiment: Test A preemergence, ragweed; assay type: in vivo; settings: Ambrosia artemisiifolia, pre-emergence, 240 h, 0 to 100 scale (0 no effect, 100 complete control), read-out: Plant response rating, Ragweed
Text: as §1, §2

Row | Compound | pest or weed control at 31 g/ha (kochia (Kochia scoparia) [1]) [%] | pest or weed control at 125 g/ha (kochia (Kochia scoparia) [1]) [%] | pest or weed control at 31 g/ha [3] [%] | pest or weed control at 125 g/ha [3] [%] | pest or weed control at 31 g/ha [4] [%] | pest or weed control at 125 g/ha [4] [%] | pest or weed control at 31 g/ha (kochia (Kochia scoparia) [5]) [%] | pest or weed control at 125 g/ha (kochia (Kochia scoparia) [5]) [%] | pest or weed control at 31 g/ha [6] [%] | pest or weed control at 125 g/ha [6] [%] | pest or weed control at 31 g/ha [7] [%] | pest or weed control at 125 g/ha [7] [%] | plant injury at 31 g/ha [8] [%] | plant injury at 125 g/ha [8] [%] | pest or weed control at 31 g/ha [9] [%] | pest or weed control at 125 g/ha [9] [%] | pest or weed control at 31 g/ha [10] [%] | pest or weed control at 125 g/ha [10] [%] | pest or weed control at 31 g/ha [11] [%] | pest or weed control at 125 g/ha [11] [%] | also measured
1 | FC(F)(F)CCC1COc2cccc(Oc3ncc(Cl)cn3)c21 (centres unmarked) [Compound 36, 5-Chloro-2-[[2,3-dihydro-3-(3,3,3-trifluoropropyl)-4-benzofuranyl]oxy]pyrimidine] | 30 | 50 | 0 | 0 | 0 | 10 | 0 | 0 | 0 | 0 | 0 | 0 | 0 | 0 | 0 | 0 | 0 | 0 | 0 | 0 | plant injury at 250 g/ha (rice (Oryza sativa)): 0%; pest or weed control at 250 g/ha [2]: 0%; pest or weed control at 250 g/ha [12]: 50%; pest or weed control at 31 g/ha [13]: 10%; pest or weed control at 125 g/ha [13]: 10%; Corn plant response rating (crop injury, 0 = no effect, 100 = complete kill) at 31 g/ha (corn (Zea mays)): 0%; Corn plant response rating (crop injury, 0 = no effect, 100 = complete kill) at 125 g/ha (corn (Zea mays)): 0%; pest or weed control at 31 g/ha [14]: 10%; pest or weed control at 125 g/ha [14]: 10%
2 | FC(F)(F)CCCC1COc2cccc(Oc3ncc(Cl)cn3)c21 (centres unmarked) [Compound 33, 5-Chloro-2-[[2,3-dihydro-3-(4,4,4-trifluorobutyl)-4-benzofuranyl]oxy]pyrimidine] | 30 | 40 | 0 | 50 | 10 | 20 | 0 | 0 | 0 | 10 | 0 | 0 | 0 | 0 | 0 | 50 | 0 | 10 | 0 | 20 | plant injury at 250 g/ha (rice (Oryza sativa)): 0%; pest or weed control at 250 g/ha [2]: 0%; pest or weed control at 250 g/ha [12]: 70%; pest or weed control at 31 g/ha [13]: 20%; pest or weed control at 125 g/ha [13]: 30%; Corn plant response rating (crop injury, 0 = no effect, 100 = complete kill) at 31 g/ha (corn (Zea mays)): 0%; Corn plant response rating (crop injury, 0 = no effect, 100 = complete kill) at 125 g/ha (corn (Zea mays)): 0%; pest or weed control at 31 g/ha [14]: 50%; pest or weed control at 125 g/ha [14]: 70%
3 | O=C1OCc2cccc(Oc3ncc(Cl)cn3)c2C1CCCC(F)(F)F (centres unmarked) [Compound 26, 5-[(5-Chloro-2-pyrimidinyl)oxy]-1,4-dihydro-4-(4,4,4-trifluorobutyl)-3H-2-benzopyran-3-one] | 20 | 60 | 0 | 10 | 100 | 100 | 0 | 20 | 20 | 100 | 0 | 0 | 0 | 0 | 0 | 30 | 0 | 10 | 0 | 0 | pest or weed control at 31 g/ha ([15]; 31 g ai/ha): 0%; pest or weed control at 125 g/ha ([15]; 125 g ai/ha): 0%; pest or weed control at 31 g/ha [13]: 30%; pest or weed control at 125 g/ha [13]: 60%; Corn plant response rating (crop injury, 0 = no effect, 100 = complete kill) at 31 g/ha (corn (Zea mays)): 10%; Corn plant response rating (crop injury, 0 = no effect, 100 = complete kill) at 125 g/ha (corn (Zea mays)): 20%; pest or weed control at 31 g/ha [14]: 20%; pest or weed control at 125 g/ha [14]: 50%

From patent US11427549B2, “Pyrimidinyloxy benzo-fused compounds as herbicides” (FMC Corporation, priority 2017, dated 2022)
